Where two headings read alike, the source gives them in different places.
Columns and labels:
HepG2 = test: CCK-8 antiproliferative assay, HepG2; format: cell-based; conditions: Homo sapiens, read-out: IC50 HepG2
Method: (§1) After synthesis and characterization, the isolongifolenone bicyclocaprolactam derivatives were evaluated for their in vitro antiproliferative activity against three cancer cell lines (MCF-7, HepG2, A549) using a CCK-8 assay. […] In general, the antiproliferative activities of most of these compounds were similar, irrespective of whether electron-withdrawing or electron-donating substituents were introduced in the phenoxy ring.
(§2) Three cancer cell lines (human breast adenocarcinoma cells MCF-7, human lung adenocarcinoma epithelial cells A549, and human hepatocellular carcinoma cells HepG2) were obtained from the Cell Bank of the Chinese Academy of Sciences (Shanghai, China). LO2 human normal liver cells were also purchased from STEM RECELL (Beijing, China, STM-CL-5770). The anti-proliferation activity of compounds was tested on three cancer cell lines. The cytotoxicity of compounds as tested on normal cell line (human normal liver cells LO2). Cells were seeded at a density of 5000 cells per well in 96-well plates. Natural product piperlongumine was used as the positive control. All experiments were performed in triplicate. Three cancer cell lines were cultured in High DMEM medium or RIPM 1640 containing 10% FBS (Sijiqing, Hangzhou, China) and 1% antibiotics at 37 °C in a 5% CO2 incubator. The experimental cells were seeded in a 96-well plate at 5000 cells per well and incubated for 24 h. The old medium was replaced with experimental medium, and the cells were cultured for 48 h. Afterward, 10 µL of CCK-8 solution was added to each well, and the cells were incubated for 3 h. The absorbance at 450 nm was measured using a microplate reader.

LO2 = test: CCK-8 cytotoxicity on normal cell line LO2; format: cell-based; conditions: Homo sapiens, L02; normal liver cells, CCK-8, 48 h, mean ± SD of three experiments
Method: as §2

MCF-7 = test: CCK-8 antiproliferative assay, MCF-7; format: cell-based; conditions: Homo sapiens, read-out: IC50 MCF-7
Method: as §1, §2

A549 = test: CCK-8 antiproliferative assay, A549; format: cell-based; conditions: Homo sapiens, read-out: IC50 A549
Method: as §1, §2

[1] = tested on: three cancer cell lines (MCF-7, HepG2, A549); test: CCK-8 antiproliferative assay, three cancer cell lines together; format: cell-based, human
Method: as §1, §2

MCF-7 xenograft = test: Zebrafish MCF-7 xenograft model; format: in vivo; conditions: 48 h, compared with PBS control; Dox 1.0 μM
Source text: Zebrafish have become a well-established model for both anticancer drug discovery and toxicity evaluation. This animal model affords several unique advantages, including rapid development, optical transparency, and genetic conservation with humans. These features make zebrafish particularly suitable for high-throughput in vivo screening and mechanistic studies in oncology research. Tumor burden in zebrafish xenografts is commonly quantified from Dil/DiI-labeled fluorescence area or integrated intensity, which correlates with cell number and treatment response. To assess the in vivo antitumor efficacy of compound E10, we established a zebrafish xenograft model. Briefly, CM-Dil-labeled MCF-7 cells (showing red fluorescence) were microinjected into the yolk sacs of zebrafish embryos. The xenografted zebrafish were then randomly assigned into five groups: three E10-treatment groups (0.5 µg/mL, 1.0 µg/mL, and 2.0 µg/mL), a Doxorubicin (Dox) positive control group, and a PBS negative control group.
All experimental procedures were approved by ACUC of Shandong Academy of Sciences (Animal Care and Use Committee). Wild-type AB of zebrafish were obtained from Biology Institute, Qilu University of Technology. The embryos were incubated in special embryonic medium (0.17 mM KCl, 5.0 mM NaCl, 0.4 mM CaCl2, and 0.16 mM MgSO4) at 28 °C. 48 h-old zebrafish embryos were microinjected with CM-Dil labelled MCF-7 cells under stereomicroscopy. After injection, zebrafish embryos with the same injection spot were randomly planted on a six-well plate. These xenograft zebrafish were sorted into four groups of about 15–20 zebrafish each and treated with 0.5, 1.0, 2.0 μg/mL of compound E10 for 48 h, 1.0 μM doxorubicin as a positive control group. After treatment, the fluorescence intensity of living cells was examined with laser confocal microscopy (Olympus, Tokyo, Japan).

[2] = HepG2, CCK-8, 48 h, mean ± SD of three experiments
[3] = MCF7, CCK-8, 48 h, mean ± SD of three experiments
[4] = A549, CCK-8, 48 h, mean ± SD of three experiments

| Structure (SMILES) | IC50 (HepG2; [2]) [µM] | IC50 (LO2) [µM] | IC50 (MCF-7; [3]) [nM] | IC50 (A549; [4]) [µM] | antiproliferative / anticancer activity [1] | IC50 (HepG2; HepG2, 48 h) [µM] | IC50 (MCF-7; MCF7, 48 h) [nM] | IC50 (A549; A549, 48 h) [µM] | fluorescence intensity of xenograft (MCF-7 xenograft) |
| --- | --- | --- | --- | --- | --- | --- | --- | --- | --- |
| Cc1ccccc1C=CC(=O)N1CC(C)(C)C23CCC(C2)C(C)(C)C3=CC1=O (stereo not drawn) [E5, 5,5,9,9-Tetramethyl-3-(3-(2-tolyl)acryloyl)-4,5,6,7,8,9-hexahydro-5a,8-methanobenzo[d]azepin-2(3H)-one] | 1.86 ± 0.09 | > 20 | 2860 ± 120 | 3.89 ± 0.44 | – | – | – | – | – |
| CC1(C)C2=CC(=O)N(C(=O)C=Cc3ccc(Br)cc3)CC(C)(C)C23CCC1C3 (stereo not drawn) [E14, 5,5,9,9-Tetramethyl-3-(3-(4-bromophenyl)acryloyl)-4,5,6,7,8,9-hexahydro-5a,8-methanobenzo[d]azepin-2(3H)-one] | 2.38 ± 0.16 | > 20 | 1270 ± 40 | 3.21 ± 0.16 | – | – | – | – | – |
| CC1(C)C2=CC(=O)N(C(=O)C=Cc3cccnc3)CC(C)(C)C23CCC1C3 (stereo not drawn) [E18, 5,5,9,9-Tetramethyl-3-(3-(pyridin-3-yl)acryloyl)-4,5,6,7,8,9-hexahydro-5a,8-methanobenzo[d]azepin-2(3H)-one] | > 20 | > 20 | > 20000 | > 20 | entirely lost | – | – | – | – |
| CC1(C)C2=CC(=O)N(C(=O)C=Cc3cccc(F)c3)CC(C)(C)C23CCC1C3 (stereo not drawn) [E6, 5,5,9,9-Tetramethyl-3-(3-(3-fluorophenyl)acryloyl)-4,5,6,7,8,9-hexahydro-5a,8-methanobenzo[d]azepin-2(3H)-one] | 5.96 ± 0.05 | > 20 | 5320 ± 110 | 5.34 ± 0.16 | – | – | – | – | – |
| CC1(C)C2=CC(=O)N(C(=O)C=Cc3ccc(F)cc3)CC(C)(C)C23CCC1C3 (stereo not drawn) [E1, 5,5,9,9-Tetramethyl-3-(3-(4-fluorophenyl)acryloyl)-4,5,6,7,8,9-hexahydro-5a,8-methanobenzo[d]azepin-2(3H)-one] | > 20 | > 20 | 9180 ± 110 | 11.7 ± 0.16 | – | – | – | – | – |
| CC1(C)C2=CC(=O)N(C(=O)C=Cc3ccccc3Br)CC(C)(C)C23CCC1C3 (stereo not drawn) [E13, 5,5,9,9-Tetramethyl-3-(3-(2-bromophenyl)acryloyl)-4,5,6,7,8,9-hexahydro-5a,8-methanobenzo[d]azepin-2(3H)-one] | 2.67 ± 0.16 | > 20 | 2120 ± 40 | 4.64 ± 0.06 | – | – | – | – | – |
| CC1(C)C2=CC(=O)N(C(=O)C=Cc3ccc(C(F)(F)F)cc3)CC(C)(C)C23CCC1C3 (stereo not drawn) [E4, 5,5,9,9-Tetramethyl-3-(3-(4-(trifluoromethyl)phenyl)acryloyl)-4,5,6,7,8,9-hexahydro-5a,8-methanobenzo[d]azepin-2(3H)-one] | > 20 | > 20 | 16740 ± 160 | 14.98 ± 0.1 | – | – | – | – | – |
| COc1ccc(C=CC(=O)N2CC(C)(C)C34CCC(C3)C(C)(C)C4=CC2=O)cc1OC (stereo not drawn) [E17, 5,5,9,9-Tetramethyl-3-(3-(3,4-dimethoxyphenyl)acryloyl)-4,5,6,7,8,9-hexahydro-5a,8-methanobenzo[d]azepin-2(3H)-one] | 2.56 ± 0.16 | > 20 | 2160 ± 30 | 5.28 ± 0.08 | good anticancer activity | – | – | – | – |
| CC1(C)C2=CC(=O)N(C(=O)C=Cc3ccc(Cl)cc3)CC(C)(C)C23CCC1C3 (stereo not drawn) [E3, 5,5,9,9-Tetramethyl-3-(3-(4-chlorophenyl)acryloyl)-4,5,6,7,8,9-hexahydro-5a,8-methanobenzo[d]azepin-2(3H)-one] | 7.09 ± 0.33 | > 20 | 18970 ± 130 | 16.9 ± 0.27 | – | – | – | – | – |
| COc1ccccc1C=CC(=O)N1CC(C)(C)C23CCC(C2)C(C)(C)C3=CC1=O (stereo not drawn) [E9, 5,5,9,9-Tetramethyl-3-(3-(2-methoxyphenyl)acryloyl)-4,5,6,7,8,9-hexahydro-5a,8-methanobenzo[d]azepin-2(3H)-one] | 2.17 ± 0.24 | > 20 | 2220 ± 70 | 2.13 ± 0.16 | – | – | – | – | – |
| CC1(C)C2=CC(=O)N(C(=O)C=Cc3cccc(Br)c3)CC(C)(C)C23CCC1C3 (stereo not drawn) [E12, 5,5,9,9-Tetramethyl-3-(3-(3-bromophenyl)acryloyl)-4,5,6,7,8,9-hexahydro-5a,8-methanobenzo[d]azepin-2(3H)-one] | 4.89 ± 0.52 | 11.26 ± 0.06 | 1260 ± 190 | 3.55 ± 0.04 | – | – | – | – | – |
| COc1cc(/C=C/C(=O)N2CCC=CC2=O)cc(OC)c1OC [PL, Piperlongumine, reference compound] | – | – | – | – | – | 3.46 ± 0.25 | 2790 ± 430 | 5.83 ± 0.26 | – |
| CC1(C)C2=CC(=O)N(C(=O)C=Cc3ccccc3Cl)CC(C)(C)C23CCC1C3 (stereo not drawn) [E15, 5,5,9,9-Tetramethyl-3-(3-(2-chlorophenyl)acryloyl)-4,5,6,7,8,9-hexahydro-5a,8-methanobenzo[d]azepin-2(3H)-one] | 2.09 ± 0.16 | > 20 | 1580 ± 160 | 3.47 ± 0.16 | – | – | – | – | – |
| COc1cccc2c1C(=O)c1c(O)c3c(c(O)c1C2=O)C[C@@](O)(C(=O)CO)C[C@@H]3O[C@H]1C[C@H](N)[C@H](O)[C@H](C)O1 [Dox, Doxorubicin, reference compound] | – | – | – | – | – | – | – | – | notable reduction in fluorescence intensity |
| Cc1ccc(C=CC(=O)N2CC(C)(C)C34CCC(C3)C(C)(C)C4=CC2=O)cc1 (stereo not drawn) [E2, 5,5,9,9-Tetramethyl-3-(3-(4-tolyl)acryloyl)-4,5,6,7,8,9-hexahydro-5a,8-methanobenzo[d]azepin-2(3H)-one] | 6.6 ± 0.07 | > 20 | 1290 ± 40 | 3.18 ± 0.16 | – | – | – | – | – |
| CC1(C)C2=CC(=O)N(C(=O)C=Cc3ccc(F)c(F)c3)CC(C)(C)C23CCC1C3 (stereo not drawn) [E19, 5,5,9,9-Tetramethyl-3-(3-(3,4-difluorophenyl)acryloyl)-4,5,6,7,8,9-hexahydro-5a,8-methanobenzo[d]azepin-2(3H)-one] | 18.43 ± 0.16 | > 20 | 17070 ± 60 | 18.9 ± 0.16 | good anticancer activity | – | – | – | – |
| COc1ccc(C=CC(=O)N2CC(C)(C)C34CCC(C3)C(C)(C)C4=CC2=O)cc1 (stereo not drawn) [E16, 5,5,9,9-Tetramethyl-3-(3-(4-methoxyphenyl)acryloyl)-4,5,6,7,8,9-hexahydro-5a,8-methanobenzo[d]azepin-2(3H)-one] | 2.44 ± 0.16 | > 20 | 2670 ± 180 | 5.28 ± 0.1 | – | – | – | – | – |
| CC1(C)C2=CC(=O)N(C(=O)C=Cc3cccc(Cl)c3)CC(C)(C)C23CCC1C3 (stereo not drawn) [E7, 5,5,9,9-Tetramethyl-3-(3-(3-chlorophenyl)acryloyl)-4,5,6,7,8,9-hexahydro-5a,8-methanobenzo[d]azepin-2(3H)-one] | 6.67 ± 0.06 | > 20 | 2670 ± 110 | 2.28 ± 0.1 | – | – | – | – | – |
| CC1(C)C2=CC(=O)N(C(=O)C=Cc3ccccc3C(F)(F)F)CC(C)(C)C23CCC1C3 (stereo not drawn) [E11, 5,5,9,9-Tetramethyl-3-(3-(2-(trifluoromethyl)phenyl)acryloyl)-4,5,6,7,8,9-hexahydro-5a,8-methanobenzo[d]azepin-2(3H)-one] | 4.53 ± 0.12 | > 20 | 5630 ± 300 | 18.3 ± 0.21 | – | – | – | – | – |
